Experimental data taken from patent US6635653B2 (priority 2001, dated 2003).
pKi: −log10 of the molar value. Several values for one entry are separate records, joined by “and”; a condition that tells them apart may be missing. Identical values can stand only once. Like-named read-outs stand apart in the source and are kept apart here.

How the values were obtained:
[1] = target: T1, human opioid receptor-like receptor (ORL-1) (Homo sapiens, UniProt P41146); experiment: biochemical; type: binding
T1 construct: host or cells: HEK-293
T1 sequence (P41146 whole entry): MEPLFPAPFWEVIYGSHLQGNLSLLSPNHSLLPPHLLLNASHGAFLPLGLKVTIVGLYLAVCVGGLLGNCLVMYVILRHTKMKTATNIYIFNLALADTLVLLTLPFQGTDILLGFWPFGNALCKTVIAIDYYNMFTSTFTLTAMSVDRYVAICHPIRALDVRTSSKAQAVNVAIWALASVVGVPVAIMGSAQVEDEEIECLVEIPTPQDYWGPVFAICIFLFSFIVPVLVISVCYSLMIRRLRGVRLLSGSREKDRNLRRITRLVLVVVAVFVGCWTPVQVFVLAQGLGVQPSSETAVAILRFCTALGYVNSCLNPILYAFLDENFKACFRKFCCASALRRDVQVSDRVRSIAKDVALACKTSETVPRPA

[2] = target: Mu opioid receptor (Homo sapiens, UniProt P35372); experiment: Affinity at the μ receptor ([35S]GTPγS binding assay, membranes); conditions: read-out: Mu Receptor Affinity calc Ki
Mu opioid receptor, sequence (P35372 whole entry, species assumed): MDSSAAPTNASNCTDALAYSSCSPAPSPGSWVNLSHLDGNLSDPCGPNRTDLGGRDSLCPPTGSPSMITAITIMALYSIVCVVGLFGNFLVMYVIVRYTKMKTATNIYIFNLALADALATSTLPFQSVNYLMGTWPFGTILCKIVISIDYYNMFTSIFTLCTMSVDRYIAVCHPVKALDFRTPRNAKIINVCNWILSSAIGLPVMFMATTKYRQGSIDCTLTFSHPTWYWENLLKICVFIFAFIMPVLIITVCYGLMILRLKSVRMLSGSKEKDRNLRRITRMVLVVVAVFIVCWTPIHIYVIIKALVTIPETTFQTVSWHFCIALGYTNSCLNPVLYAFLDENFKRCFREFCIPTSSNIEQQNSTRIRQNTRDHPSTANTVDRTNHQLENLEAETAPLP
Experimental: Affinity at the μ receptor for compounds was obtained according to the following assay:
Mu opioid receptor membrane solution was prepared by sequentially adding final concentrations of 0.075 μg/μl of the desired membrane protein, 10 μg/ml saponin, 3 μM GDP and 0.20 nM [^35S]GTPγS to binding buffer (100 mM NaCl, 10 mM MgCl2, 20 mM HEPES, pH 7.4) on ice. The prepared membrane solution (190 μl/well) was transferred to 96-shallow well polypropylene plates containing 10 μl of 20×concentrated stock solutions of agonist prepared in DMSO. Plates were incubated for 30 min at room temperature with shaking. Reactions were terminated by rapid filtration onto 96-well Unifilter GF/B filter plates (Packard) using a 96-well tissue harvester (Brandel) and followed by three filtration washes with 200 μl ice-cold binding buffer (10 mM NaH2PO4, 10 mM Na2HPO4, pH 7.4). Filter plates were subsequently dried at 50° C. for 2-3 hours. Fifty μl/well scintillation cocktail (MicroScint20, Packard) was added and plates were counted in a Packard Top-Count for 1 min/well.
Data were analyzed using the curve fitting functions in GraphPad PRISM™, v.3.0 and the results for several compounds are set forth in table 2 below: […]

| Compound | pKi ([1]; Nociceptin Affinity calc Ki) | also measured |
| --- | --- | --- |
| CCCC1CCC(N2CCC3(CC2)C(=O)NN=C3c2ccccc2)CC1 (centres unmarked) [8-(4-propylcyclohexyl)-4-phenyl-2,3,8-triazospiro[4.5]dec-3-en-1-one] | 7.53 | – |
| O=C1NN=C(c2ccccc2)C12CCN(C1CCC3CCCCC3C1)CC2 (centres unmarked) [8-(decahydro-2-naphthyl)-4-phenyl-2,3,8-triazospiro[4.5]dec-3-en-1-one] | 8.96 | – |
| O=C1NN=C(c2ccccc2)C12CCN(Cc1ccccc1)CC2 [8-(benzyl)-4-phenyl-2,3,8-triazospiro[4.5]dec-3-en-1-one] | 6.53 | – |
| O=C1NNC(c2ccccc2)C12CCN(Cc1ccccc1)CC2 (centres unmarked) [8-(benzyl)-1-phenyl-2,3,8-triazospiro[4.5]decan-4-one] | – | pKi [2]: 7.25 |
| O=C1NNC(c2ccccc2)C12CCN(Cc1ccc3ccccc3c1)CC2 (centres unmarked) [8-[(naphth-2-yl-methyl)]-1-phenyl-2,3,8-triazospiro[4.5]decan-4-one] | – | pKi [2]: 7.08 |
| O=C1NN=C(c2ccccc2)C12CCN(CC1CCCCCCC1)CC2 [8-(cyclooctylmethyl)-4-phenyl-2,3,8-triazospiro[4.5]dec-3-en-1-one] | 8.09 and 7.21 | – |
| CC(C)CCC(C)N1CCC2(CC1)C(=O)NN=C2c1ccccc1 (centres unmarked) [8-(5-methylhex-2-yl)-4-phenyl-2,3,8-triazospiro[4.5]dec-3-en-1-one] | 7.94 | – |
| O=C1NN=C(c2ccccc2)C12CCN(CCC(c1ccccc1)c1ccccc1)CC2 [8-(3,3-Bis(phenyl)propyl)-4-phenyl-2,3,8-triazospiro[4.5]dec-3-en-1-one] | 7.12 | – |
| O=C1NN=C(c2ccccc2)C12CCN(Cc1ccc3ccccc3c1)CC2 [8-[(naphth-2-yl-methyl)]-4-phenyl-2,3,8-triazospiro[4.5]dec-3-en-1-one] | 6.40 | – |
| O=C1NN=C(c2ccccc2)C12CCN(Cc1ccc(OCc3ccccc3)cc1)CC2 [8-(p-benzyloxybenzyl)-4-phenyl-2,3,8-triazospiro[4.5]dec-3-en-1-one] | 6.86 | – |
| O=C1NN=C(c2ccccc2)C12CCN(CCCC(c1ccc(F)cc1)c1ccc(F)cc1)CC2 [8-[4,4-Bis(4-fluorophenyl)butyl]-4-phenyl-2,3,8-triazospiro[4.5]dec-3-en-1-one] | 5.59 | – |
| O=C1NN=C(c2ccccc2)C12CCN(C1c3ccccc3CCc3ccccc31)CC2 [8-(10,11-Dihydro-5H-dibenzo[a,d]-cyclohepten-5-yl)-4-phenyl-2,3,8-triazospiro[4.5]dec-3-en-1-one] | 6.55 | – |
| CC(C)C1CCC(N2CCC3(CC2)C(=O)NN=C3c2ccccc2)CC1 (centres unmarked) [8-[4-(2-propyl)-cyclohexyl]-4-phenyl-2,3,8-triazospiro[4.5]dec-3-en-1-one] | 8.82 | – |
| O=C1NNC(c2ccccc2)C12CCN(C1CCc3ccccc3C1)CC2 (centres unmarked) [8-(1,2,3,4-tetrahydro-2-naphthyl)-1-phenyl-2,3,8-triazospiro[4.5]decan-4-one] | – | pKi [2]: 6.94 |
| O=C1NN=C(c2ccccc2)C12CCN(C1CC3CCC1C3)CC2 (centres unmarked) [8-norbornyl-4-phenyl-2,3,8-triazospiro[4.5]dec-3-en-1-one] | – | pKi ([1]; read-out: Nociceptin Affinity calc Ki): 6.05 |
| O=C1NNC(c2ccccc2)C12CCN(CC1CCCCCCC1)CC2 (centres unmarked) [8-(cyclooctylmethyl)-1-phenyl-2,3,8-triazospiro[4.5]decan-4-one] | – | pKi [2]: 6.72 |
| O=C1NN=C(c2ccccc2)C12CCN(Cc1ccc(-c3ccccc3)cc1)CC2 [8-(p-phenylbenzyl)-4-phenyl-2,3,8-triazospiro[4.5]dec-3-en-1-one] | 5.14 | – |
